Tests used:
Format in all cases: in vivo
[1] = tested on: Fasn; assay: Short term HFD mouse model, gene expression in liver tissue: Fasn; details: liver mRNA (qPCR, normalized to Tbp), three oral doses of 20 mg/kg, HFD mice
Experimental: (§1) Short Term HFD Mouse Model:
(§2) The in vivo transcriptional regulation of several LXR target genes by LXR modulators was assessed in mice.
(§3) For this, C57BL/6J were purchased from Elevage Janvier (Rennes, France) at the age of 8 weeks. After an acclimation period of two weeks, animals were preferred on a high fat diet (HFD) (Ssniff Spezialdiaten GmbH, Germany, Surwit EF D12330 mod, Cat. No. E15771-34), with 60 kcal % from fat plus 1% (w/w) extra cholesterol (Sigma-Aldrich, St. Louis, Mo.) for 5 days. Animals were maintained on this diet during treatment with LXR modulators. […]
(§4) Upon termination, liver was collected, dipped in ice cold PBS for 30 seconds and cut into appropriate pieces. […] For the clinical chemistry analysis from plasma, alanine aminotransferase (ALT, IU/mL), cholesterol (CHOL, mg/dL) and triglycerides (TG, mg/dL) were determined using a fully-automated bench top analyzer (Respons®910, DiaSys Greiner GmbH, Flacht, Germany) with system kits provided by the manufacturer. […]
(§5) To obtain total RNA from frozen liver tissue, samples (25 mg liver tissue) were first homogenized with RLA buffer (4M guanidin thiocyanate, 10 mM Tris, 0.97% w:v β-mercapto-ethanol). […] Quantitative PCR was performed and analyzed using Prime time Gene expression master mix (Integrated DNA Technologies, Coralville, Iowa, USA) and a 384-format ABI 7900HT Sequence Detection System (Applied Biosystems, Foster City, USA). […]

[2] = tested on: Scd1; assay: Short term HFD mouse model, gene expression in liver tissue: Scd1; details: liver mRNA (qPCR, normalized to Tbp), three oral doses of 20 mg/kg, HFD mice
Experimental: as §1, §2, §3, §4, §5

[3] = tested on: Srebp1c; assay: Short term HFD mouse model, gene expression in liver tissue: Srebp1c; details: liver mRNA (qPCR, normalized to Tbp), three oral doses of 20 mg/kg, HFD mice
Experimental: as §1, §2, §3, §4, §5

[4] = tested on: Hepatic LXR target genes; assay: Short term HFD mouse model, hepatic LXR target genes (summary in words); details: multiple oral dosing in mice
Experimental: as §1, §2, §3
as §5, with “USA). The expression of the following genes was analysed: Stearoyl-CoA desaturase1 (Scd1), fatty acid synthase (Fas) and sterol regulatory element-binding protein1 (Srebp1).” for “USA).”

[5] = Short term HFD mouse model, plasma and liver exposure; details: three oral doses of 20 mg/kg, HFD C57BL/6J mice; for Kp at 4 h: mouse, liver/plasma, read-out: liver/plasma ratio, 4 h; for liver exposure, 4 h / plasma exposure, 4 h: 4 h after final treatment
Experimental: as §1, §2
For this, C57BL/6J were purchased from Elevage Janvier (Rennes, France) at the age of 8 weeks. After an acclimation period of two weeks, animals were preferred on a high fat diet (HFD) (Ssniff Spezialdiaten GmbH, Germany, Surwit EF D12330 mod, Cat. No. E15771-34), with 60 kcal % from fat plus 1% (w/w) extra cholesterol (Sigma-Aldrich, St. Louis, Mo.) for 5 days. Animals were maintained on this diet during treatment with LXR modulators. The test compounds were formulated in 0.5% hydroxypropylmethylcellulose (HPMC) and administered in three doses (20 mg/kg each) by oral gavage according to the following schedule: on day one, animals received treatment in the morning and the evening (ca. 17:00), on day two animals received the final treatment in the morning after a 4 h fast and were sacrificed 4 h thereafter. Animal work was conducted according to the national guidelines for animal care in Germany.
Upon termination, liver was collected, dipped in ice cold PBS for 30 seconds and cut into appropriate pieces. Pieces were snap frozen in liquid nitrogen and stored at −80° C. For the clinical chemistry analysis from plasma, alanine aminotransferase (ALT, IU/mL), cholesterol (CHOL, mg/dL) and triglycerides (TG, mg/dL) were determined using a fully-automated bench top analyzer (Respons®910, DiaSys Greiner GmbH, Flacht, Germany) with system kits provided by the manufacturer.

| Kp at 4 h [5] | liver exposure, 4 h [5] [µM] | plasma exposure, 4 h [5] [nM] | SMILES | Fasn suppression compared to vehicle [1] | Scd1 suppression compared to vehicle [2] | Srebp1c suppression compared to vehicle [3] | Hepatic LXR target genes (in words) [4] |
| --- | --- | --- | --- | --- | --- | --- | --- |
| 33.3 | 4.372 | 131 | Cc1cc(C)c(S(=O)(=O)N(Cc2ccc(C(F)(F)F)o2)Cc2ccc(-c3cccc(C(C)(C)C(=O)O)c3)cc2Cl)c(C)c1 [10/5] | 0.41 | 0.38 | 0.33 | effectively suppressed |
| 52.4 | 5.359 | 102 | Cc1ccc2ccccc2c1S(=O)(=O)N(Cc1ccc(-c2cccc(C(C)(C)C(=O)O)c2)cc1)Cc1ccc(C(F)(F)F)o1 [Example 24, 2-Methyl-2-(4′-(((2-methyl-N-((5-(trifluoromethyl)furan-2-yl)methyl)naphthalene)-1-sulfonamido)methyl)-[1,1′-biphenyl]-3-yl)propanoic acid] | 0.23 | 0.25 | 0.25 | effectively suppressed |
